Results reported in patent US9074014B2 (Ipsen Pharma S.A.S., priority 2008, dated 2015).
*1 amine or outer side, *2 acyl side, *3 side chain or, on linkers, in order; H or OH if unused. Where a SMILES comes first, the peptide text is derived from it. Where no end group is shown, it is not given here. [ ]: non-standard residue; d: D form. The star is where a group is joined. NMeY = CN[C@@H](Cc1ccc(O)cc1)C(=O)O; X2 = O=C([C@@H]1CC(O)CN1[*:1])[*:2]; Tic = O=C(O)[C@@H]1Cc2ccccc2CN1; Ac6c = NC1(C(=O)O)CCCCC1; Nle = CCCC[C@H](N)C(=O)O; X1 = CCCN1C(=O)CC(*)C1=O; Ac5c = NC1(C(=O)O)CCCC1; Aib = CC(C)(N)C(=O)O

Legend:
[1] = Human plasma half-life assay; assay type: in vitro ADME; details: human plasma, 37° C., LC-MS; for half-life at 0.1 mg/ml: read-out: Human Plasma T½ (converted)
Protocol: (§1) B. Human and Rat Plasma Half-Life Assay
(§2) 50 μL was removed at various times, like at 0, 1, 2, 3, 4, 8, 24, 32, 48, 56, 72 hours, mixed with 5 μL formic acid and 150 μL acetonitrile in a microcentrifuge tube, vertexed, and centrifuged for 10 minutes at 10K rpm. The supernatant was transferred to an injection vial and analyzed by LC-MS. The LC-MS system consisted of an API4000 mass spectrometer with an ESI probe. Positive ion mode and full scan detection were used. HPLC separation was carried out on a Luna 3μ C8 (2), 2×30 mm column with a gradient from 90% A to 90% B in 10 minutes at a flow rate of 0.3 ml/min. Buffer A was 1% formic acid in water and buffer B was 1% formic acid acetonitrile.

[2] = Rat plasma half-life assay; assay type: in vitro ADME; details: rat plasma, 37° C., LC-MS; for half-life at 0.1 mg/ml: read-out: Rat Plasma T½ (converted)
Protocol: as §1, §2

Molecule: Y[Aib]EGTF[Ac6c]SDYSIA[Nle]DKIHQQDFVNWLLAQKGKKNDWKHN[Ac6c]TQ-OH [Example 28, (Aib^2, A6c^7, 40, Nle^14)hGIP(1-42)-OH]
- half-life at 0.1 mg/ml [1]: > 48 h
- half-life at 0.1 mg/ml [2]: 11.6 h

Molecule: CCCC[C@H](NC(=O)[C@H](C)NC(=O)[C@@H](NC(=O)[C@H](CO)NC(=O)[C@H](Cc1ccc(O)cc1)NC(=O)[C@H](CC(=O)O)NC(=O)[C@H](CO)NC(=O)C1(NC(=O)[C@H](Cc2ccccc2)NC(=O)[C@@H](NC(=O)CNC(=O)[C@H](CCC(=O)O)NC(=O)C2(NC(=O)[C@@H](N)Cc3ccc(O)cc3)CCCC2)[C@@H](C)O)CCCC1)[C@@H](C)CC)C(=O)N[C@@H](CC(=O)O)C(=O)N[C@@H](CCCCN)C(=O)N[C@H](C(=O)N[C@@H](Cc1c[nH]cn1)C(=O)N[C@@H](CCC(N)=O)C(=O)N[C@@H](CCC(N)=O)C(=O)N[C@@H](CC(=O)O)C(=O)N[C@@H](Cc1ccccc1)C(=O)N[C@H](C(=O)N[C@@H](CC(N)=O)C(=O)N[C@@H](Cc1c[nH]c2ccccc12)C(=O)N[C@@H](CC(C)C)C(=O)N[C@@H](CC(C)C)C(=O)N[C@@H](C)C(=O)N[C@@H](CCC(N)=O)C(=O)N[C@@H](CCCCN)C(N)=O)C(C)C)[C@@H](C)CC [Example 34, (A5c^2,7, Nle^14)hGIP(1-30)-NH2] (H-Y[Ac5c]EGTF[Ac5c]SDYSIA[Nle]DKIHQQDFVNWLLAQK-NH2; N-terminus assumed)
- half-life at 0.1 mg/ml [1]: > 48 h
- half-life at 0.1 mg/ml [2]: 23 h

Molecule: CCCC[C@H](NC(=O)[C@H](C)NC(=O)[C@@H](NC(=O)[C@H](CO)NC(=O)[C@H](Cc1ccc(O)cc1)NC(=O)[C@H](CC(=O)O)NC(=O)[C@H](CO)NC(=O)C1(NC(=O)[C@H](Cc2ccccc2)NC(=O)[C@@H](NC(=O)CNC(=O)[C@H](CCC(=O)O)NC(=O)C(C)(C)NC(=O)[C@@H](N)Cc2ccc(O)cc2)[C@@H](C)O)CCCC1)[C@@H](C)CC)C(=O)N[C@@H](CC(=O)O)C(=O)N[C@@H](CCCCN)C(=O)N[C@H](C(=O)N[C@@H](Cc1c[nH]cn1)C(=O)N[C@@H](CCC(N)=O)C(=O)N[C@@H](CCC(N)=O)C(=O)N[C@@H](CC(=O)O)C(=O)N[C@@H](Cc1ccccc1)C(=O)N[C@H](C(=O)N[C@@H](CC(N)=O)C(=O)N[C@@H](Cc1c[nH]c2ccccc12)C(=O)N[C@@H](CC(C)C)C(=O)N[C@@H](CC(C)C)C(=O)N[C@@H](C)C(=O)N[C@@H](CCC(N)=O)C(=O)N[C@@H](CCCCN)C(N)=O)C(C)C)[C@@H](C)CC [Example 32, (Aib^2, A5c^7, Nle^14)hGIP(1-30)-NH2] (H-Y[Aib]EGTF[Ac5c]SDYSIA[Nle]DKIHQQDFVNWLLAQK-NH2; N-terminus assumed)
- half-life at 0.1 mg/ml [1]: > 48 h
- half-life at 0.1 mg/ml [2]: 28.3 h

Molecule: H-YA[X2]GTFISDYSIA[Ac6c]DKIHQQDFVNWLLAQKGKKNDWKHNITQ-OH [Example 84, (4Hyp^3, A6c^14)hGIP(1-42)-OH]
- half-life at 0.1 mg/ml [1]: 3.3 h
- half-life at 0.1 mg/ml [2]: 1.9 h

Molecule: Y[Aib]EGTF[Ac6c]SDYSIAMDKIHQQDFVNWLLAQKGKKC(X1)DWKHNITQ-OH [Example 86, [Aib^2, A6c^7, Cys(Psu)^34]hGIP(1-42)-OH]
- half-life at 0.1 mg/ml [1]: 4.2 h
- half-life at 0.1 mg/ml [2]: 7 h

Molecule: H-[NMeY][Aib]EGTFISDY[Ac5c]IA[Nle]DKIHQQDFVNWLLAQKGKKNDWKHNITQ-OH [Example 113, (NMe-Tyr^1, Aib^2, A5c^11, Nle^14)hGIP(1-42)-OH]
- half-life at 0.1 mg/ml [1]: 61.9 h
- half-life at 0.1 mg/ml [2]: 27 h

Molecule: CCCC[C@H](NC(=O)C(C)(C)NC(=O)[C@@H](NC(=O)[C@H](CO)NC(=O)[C@H](Cc1ccc(O)cc1)NC(=O)[C@H](CC(=O)O)NC(=O)[C@H](CO)NC(=O)[C@@H](NC(=O)[C@H](Cc1ccccc1)NC(=O)[C@@H](NC(=O)CNC(=O)[C@@H]1Cc2ccccc2CN1C(=O)[C@H](C)NC(=O)[C@@H](N)Cc1ccc(O)cc1)[C@@H](C)O)[C@@H](C)CC)[C@@H](C)CC)C(=O)N[C@@H](CC(=O)O)C(=O)N[C@@H](CCCCN)C(=O)N[C@H](C(=O)N[C@@H](Cc1c[nH]cn1)C(=O)N[C@@H](CCC(N)=O)C(=O)N[C@@H](CCC(N)=O)C(=O)N[C@@H](CC(=O)O)C(=O)N[C@@H](Cc1ccccc1)C(=O)N[C@H](C(=O)N[C@@H](CC(N)=O)C(=O)N[C@@H](Cc1c[nH]c2ccccc12)C(=O)N[C@@H](CC(C)C)C(=O)N[C@@H](CC(C)C)C(=O)N[C@@H](C)C(=O)N[C@@H](CCC(N)=O)C(=O)N[C@@H](CCCCN)C(=O)NCC(=O)N[C@@H](CCCCN)C(=O)N[C@@H](CCCCN)C(=O)N[C@@H](CC(N)=O)C(=O)N[C@@H](CC(=O)O)C(=O)N[C@@H](Cc1c[nH]c2ccccc12)C(=O)N[C@@H](CCCCN)C(=O)N[C@@H](Cc1c[nH]cn1)C(=O)N[C@@H](CC(N)=O)C(=O)N[C@H](C(=O)N[C@H](C(=O)N[C@@H](CCC(N)=O)C(=O)O)[C@@H](C)O)[C@@H](C)CC)C(C)C)[C@@H](C)CC [Example 69, (Tic^3, Aib^13, Nle^14)hGIP(1-42)-OH]
- half-life at 0.1 mg/ml [1]: 36.9 h
- half-life at 0.1 mg/ml [2]: 1.8 h

Molecule: CC[C@H](C)[C@H](NC(=O)[C@H](CCCCN)NC(=O)[C@H](CC(=O)O)NC(=O)[C@H](CCSC)NC(=O)[C@H](C)NC(=O)C(C)(C)NC(=O)[C@H](CO)NC(=O)[C@H](Cc1ccc(O)cc1)NC(=O)[C@H](CC(=O)O)NC(=O)[C@H](CO)NC(=O)[C@@H](NC(=O)[C@H](Cc1ccccc1)NC(=O)[C@@H](NC(=O)CNC(=O)[C@H](CCC(=O)O)NC(=O)C(C)(C)NC(=O)[C@@H](N)Cc1ccc(O)cc1)[C@@H](C)O)[C@@H](C)CC)C(=O)N[C@@H](Cc1c[nH]cn1)C(=O)N[C@@H](CCC(N)=O)C(=O)N[C@@H](CCC(N)=O)C(=O)N[C@@H](CC(=O)O)C(=O)N[C@@H](Cc1ccccc1)C(=O)N[C@H](C(=O)N[C@@H](CC(N)=O)C(=O)N[C@@H](Cc1c[nH]c2ccccc12)C(=O)N[C@@H](CC(C)C)C(=O)N[C@@H](CC(C)C)C(=O)N[C@@H](C)C(=O)N[C@@H](CCC(N)=O)C(=O)N[C@@H](CCCCN)C(N)=O)C(C)C [Example 20, (Aib^2, 12)hGIP(1-30)-NH2] (H-Y[Aib]EGTFISDYS[Aib]AMDKIHQQDFVNWLLAQK-NH2; N-terminus assumed)
- half-life at 0.1 mg/ml [1]: 25.4 h
- half-life at 0.1 mg/ml [2]: 42 h

Molecule: Y[Aib]EGTF[Aib]SDYSIAMDKIHQQDFVNWLLAQKGKKNDWKHNITQ-OH [Example 3, (Aib^2, 7)hGIP(1-42)-OH]
- half-life at 0.1 mg/ml [1]: > 48 h
- half-life at 0.1 mg/ml [2]: 5.5 h

Molecule: CCCC[C@H](NC(=O)C(C)(C)NC(=O)[C@@H](NC(=O)[C@H](CO)NC(=O)[C@H](Cc1ccc(O)cc1)NC(=O)[C@H](CC(=O)O)NC(=O)[C@H](CO)NC(=O)[C@@H](NC(=O)[C@H](Cc1ccccc1)NC(=O)[C@@H](NC(=O)CNC(=O)[C@H](CCC(=O)O)NC(=O)C(C)(C)NC(=O)[C@@H](N)Cc1ccc(O)cc1)[C@@H](C)O)[C@@H](C)CC)[C@@H](C)CC)C(=O)N[C@@H](CC(=O)O)C(=O)N[C@@H](CCCCN)C(=O)N[C@H](C(=O)N[C@@H](Cc1c[nH]cn1)C(=O)N[C@@H](CCC(N)=O)C(=O)N[C@@H](CCC(N)=O)C(=O)N[C@@H](CC(=O)O)C(=O)N[C@@H](Cc1ccccc1)C(=O)N[C@H](C(=O)N[C@@H](CC(N)=O)C(=O)N[C@@H](Cc1c[nH]c2ccccc12)C(=O)N[C@@H](CC(C)C)C(=O)N[C@@H](CC(C)C)C(=O)N[C@@H](C)C(=O)N[C@@H](CCC(N)=O)C(=O)N[C@@H](CCCCN)C(N)=O)C(C)C)[C@@H](C)CC [Example 49, (Aib^2, 13, Nle^14)hGIP(1-30)-NH2] (H-Y[Aib]EGTFISDYSI[Aib][Nle]DKIHQQDFVNWLLAQK-NH2; N-terminus assumed)
- Human Plasma T½ [1]: >56 h
- Rat Plasma T½ [2]: 45.0 h

Molecule: YA[X2]GTFISDYSI[Aib]MDKIHQQDFVNWLLAQKGKKNDWKHNITQ [Example 67, (4Hyp^3, Aib^13)hGIP(1-42)-OH]
- half-life at 0.1 mg/ml [1]: > 33 h
- half-life at 0.1 mg/ml [2]: 1.6 h

Molecule: Y[Aib]EGTF[Ac6c]SDYSIA[Nle]DKIHQQDFVNWLL[Aib]QKGKKNDWKHNITQ-OH [Example 30, (Aib^2, 28, A6c^7, Nle^14)hGIP(1-42)-OH]
- half-life at 0.1 mg/ml [1]: > 48 h
- half-life at 0.1 mg/ml [2]: 13.4 h

Molecule: CC[C@H](C)[C@H](NC(=O)[C@H](CCCCN)NC(=O)[C@H](CC(=O)O)NC(=O)[C@H](CCSC)NC(=O)[C@H](C)NC(=O)[C@@H](NC(=O)C1(NC(=O)[C@H](Cc2ccc(O)cc2)NC(=O)[C@H](CC(=O)O)NC(=O)[C@H](CO)NC(=O)[C@@H](NC(=O)[C@H](Cc2ccccc2)NC(=O)[C@@H](NC(=O)CNC(=O)[C@@H]2CCCCN2C(=O)[C@H](C)NC(=O)[C@@H](N)Cc2ccc(O)cc2)[C@@H](C)O)[C@@H](C)CC)CCCC1)[C@@H](C)CC)C(=O)N[C@@H](Cc1c[nH]cn1)C(=O)N[C@@H](CCC(N)=O)C(=O)N[C@@H](CCC(N)=O)C(=O)N[C@@H](CC(=O)O)C(=O)N[C@@H](Cc1ccccc1)C(=O)N[C@H](C(=O)N[C@@H](CC(N)=O)C(=O)N[C@@H](Cc1c[nH]c2ccccc12)C(=O)N[C@@H](CC(C)C)C(=O)N[C@@H](CC(C)C)C(=O)N[C@@H](C)C(=O)N[C@@H](CCC(N)=O)C(=O)N[C@@H](CCCCN)C(=O)NCC(=O)N[C@@H](CCCCN)C(=O)N[C@@H](CCCCN)C(=O)N[C@@H](CC(N)=O)C(=O)N[C@@H](CC(=O)O)C(=O)N[C@@H](Cc1c[nH]c2ccccc12)C(=O)N[C@@H](CCCCN)C(=O)N[C@@H](Cc1c[nH]cn1)C(=O)N[C@@H](CC(N)=O)C(=O)N[C@H](C(=O)N[C@H](C(=O)N[C@@H](CCC(N)=O)C(=O)O)[C@@H](C)O)[C@@H](C)CC)C(C)C [Example 74, (hPro^3, A5c^11)hGIP(1-42)-OH]
- half-life at 0.1 mg/ml [1]: 16.3 h
- half-life at 0.1 mg/ml [2]: 1.3 h

Molecule: YA[Tic]GTFISDYSI[Aib]MDKIHQQDFVNWLLAQKGKKNDWKHNITQ [Example 66, (Tic^3, Aib^13)hGIP(1-42)-OH]
- half-life at 0.1 mg/ml [1]: 19.1 h
- half-life at 0.1 mg/ml [2]: 8.8 h

Molecule: YA[Tic]GTFISDY[Ac5c]IA[Ac6c]DKIHQQDFVNWLLAQKGKKNDWKHNITQ-OH [Example 89, (Tic^3, A5c^11, A6c^14)hGIP(1-42)-OH]
- half-life at 0.1 mg/ml [1]: > 48 h
- half-life at 0.1 mg/ml [2]: 11.8 h
